Measured values as given in EP0415924B1, “REGULATION OF CELL PROLIFERATION AND DIFFERENTIATION USING PEPTIDES” (HOLICK, Michael F, priority 1987, dated 1996).

How the values were obtained:
[1] = tested on: cultured human keratinocytes; experiment: Keratinocyte differentiation: count of cornified envelopes after one week of dosing; type: cell-based; details: dose-dependent, relative to control cultures, Figures 6 and 7
Experimental: Keratinocytes were grown in culture as follows. NIH 3T3 cells were plated at 0.5 x 10⁵ cells per 35-mm tissue-culture dish, and two days later were lethally irradiated with a cobalt-60 source (5000 rads). Keratinocytes were obtained from neonatal foreskin after overnight trypsinization at 4°C and treatment with 0.02% EDTA. Keratinocytes were plated in 2 ml of serum-free medium per dish on the lethally irradiated 3T3 cells. Each experiment was performed on primary or secondary keratinocyte cultures obtained from different skin samples. The serum-free medium consisted of Dulbecco's Modified Eagle's Medium (DMEM) with high (1.8 mM) concentration of calcium (M.A. Bioproducts, Walkersville, MD) containing 7 growth factors: epidermal growth factor (25 ng/ml); hydrocortisone (203 ng/ml); insulin (5 µg/ml); prostaglandin E₁ (50 ng/ml); transferrin (5 µg/ml; prostaglandin E₁ (50 ng/ml); cholera toxin (0.1 µg/ml); (Sigma Chemical Co., St. Louis, MO); and selenous acid (2 ng/ml) (Collaborative Research, Lexington, MA). At one week in culture, hydrocortisone and cholera toxin were removed from the medium, and the dishes were washed with 0.02% EDTA to remove any remaining 3T3 cells.
In addition, 1,25-(OH)₂D₃ was tested, alone and in combination with PTH (7-34), and PTH (1-34) and PTH (7-34) were tested together. […]

[2] = tested on: cultured human keratinocytes; experiment: Keratinocyte culture: counts of total cells and basal cells after one week of dosing; type: cell-based; details: seven days, dose-dependent, Figures 2-5
Experimental: Keratinocytes were grown in culture as follows. NIH 3T3 cells were plated at 0.5 x 10⁵ cells per 35-mm tissue-culture dish, and two days later were lethally irradiated with a cobalt-60 source (5000 rads). Keratinocytes were obtained from neonatal foreskin after overnight trypsinization at 4°C and treatment with 0.02% EDTA. Keratinocytes were plated in 2 ml of serum-free medium per dish on the lethally irradiated 3T3 cells. Each experiment was performed on primary or secondary keratinocyte cultures obtained from different skin samples. The serum-free medium consisted of Dulbecco's Modified Eagle's Medium (DMEM) with high (1.8 mM) concentration of calcium (M.A. Bioproducts, Walkersville, MD) containing 7 growth factors: epidermal growth factor (25 ng/ml); hydrocortisone (203 ng/ml); insulin (5 µg/ml); prostaglandin E₁ (50 ng/ml); transferrin (5 µg/ml; prostaglandin E₁ (50 ng/ml); cholera toxin (0.1 µg/ml); (Sigma Chemical Co., St. Louis, MO); and selenous acid (2 ng/ml) (Collaborative Research, Lexington, MA). At one week in culture, hydrocortisone and cholera toxin were removed from the medium, and the dishes were washed with 0.02% EDTA to remove any remaining 3T3 cells. […]
After seven days the cultures were evaluated for their total cell content, number of basal cells, and cornified envelopes as described above. […]

[3] = tested on: canine adenylate cyclase system; details: cited from earlier work

Row | Compound | total number of cornified envelopes (percent of control) [1] | total number of cells and the number of basal cells in the cultures [2] | activity relative to bovine PTH (1-34) ([3]; more active than bovine PTH (1-34)) | activity relative to human PTH (1-34) ([3]; more active than human PTH (1-34))
1 | C=C1/C(=C\C=C2/CCC[C@]3(C)[C@@H]([C@H](C)CCCC(C)(C)O)CC[C@@H]23)C[C@@H](O)C[C@@H]1O [1,25(OH)₂D₃, 1,25-dihydroxyvitamin D₃] | increased, in a dose-dependent manner | in a dose-dependent manner decreased |  | 
2 | Rat PTH (1-34): rat PTH 1-34 fragment, 5 amino acid sequence difference from the 1-34 region of human and bovine PTH |  |  | 2-4 fold | 8-10 fold
